For one experiment, the target named is Human Axl (Homo sapiens (Human), UniProt P30530, Q764R). The experiment is described as follows: Human AXL kinase assay (33P radiometric, KinaseProfiler). To be noted: 10 μM ATP. Format: biochemical. As to the method:
Kinase activity and compound inhibition were investigated using the ^33P-Phosphoryl transfer radiometric kinase assay, performed using the KinaseProfiler™ service of Eurofins Pharma Discovery Services UK Limited. Dose-response experiments were performed using nine compound concentrations in a 96-well microtiter plate. For each assay, all compounds were prepared to a 50× final assay concentration (50 μM) in 100% DMSO, then diluted in a half-log series, with the final top concentration at 1 μM. This working stock of the compound was added to the assay well as the first component in the reaction, followed by the remaining components as detailed in the following assay protocols below. The positive control wells (100% kinase activity) contain all components of the reaction including 2% DMSO (control for solvent effects), except the compound of interest. Blank wells contain all components of the reaction, with the reference inhibitor, staurosporine. This reference compound was used to abolish kinase activity and generated the 0% kinase activity base-line. IC50 values were calculated by nonlinear regression analysis using the sigmoidal dose-response (variable slope) curve fit on XLFit version 5.3 (ID Business Solutions).
Human Axl (residues H473-A894 with Q764R, 161 nM) was incubated with 8 mM MOPS pH 7.0, 0.2 mM EDTA, 250 μM KKSRGDYMTMQIG (SEQ ID NO. 43), 10 mM magnesium acetate and 10 μM [γ-33P-ATP]. The reaction was initiated by the addition of the Mg/ATP mix. After incubation for 40 minutes at room temperature, the reaction was stopped by the addition of phosphoric acid to a concentration of 0.5%. A reaction aliquot of 10 μL was then spotted onto a P30 filtermat and washed four times for 4 minutes in 0.425% phosphoric acid and once in methanol prior to drying and scintillation counting. Incorporated ^33P was measured using the Wallac Microbeta scintillation counter (Perkin Elmer).

The next experiment addresses AXL (Homo sapiens (Human), UniProt P30530). Nature of the experiment: AXL autophosphorylation ELISA in A-172 cells. The class given is cell-based. To be noted: cellular, Gas6-stimulated, phospho-AXL ELISA. The method, boiled down: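 A-172 glioblastoma cells, serum-starved 24 h, took compounds for 1 h (8-point curve, 0.3% DMSO) before 15 min stimulation with 1 μg/mL recombinant human Gas6. Lysate phospho-AXL measured by ELISA against a phospho-AXL standard, normalized to DMSO (100%) and reference inhibitor (0%); IC50 from 4-parameter logistic fit.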
(In general: In an ELISA, binding on a coated surface is turned into a signal by an enzyme label.)

Another experiment deals with Mer (Homo sapiens (Human), UniProt Q12866). Nature of the experiment: Mer autophosphorylation ELISA in transient transfected 293A cells. The class given is cell-based. To be noted: cellular, MERTK-transfected 293A cells, phospho-Mer ELISA. The procedure, abridged:
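293A cells transiently transfected with human MERTK DNA, then treated 1 h with 8-point compound dilutions in serum-free medium (0.3% DMSO). Phospho-Mer in lysates quantified by sandwich ELISA against phospho-Mer standard; normalised to DMSO (100%) and reference inhibitor (0%), IC50 from 4-parameter logistic fit.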

Structures are written as SMILES.

Sequence of Mer (Q12866 21-999): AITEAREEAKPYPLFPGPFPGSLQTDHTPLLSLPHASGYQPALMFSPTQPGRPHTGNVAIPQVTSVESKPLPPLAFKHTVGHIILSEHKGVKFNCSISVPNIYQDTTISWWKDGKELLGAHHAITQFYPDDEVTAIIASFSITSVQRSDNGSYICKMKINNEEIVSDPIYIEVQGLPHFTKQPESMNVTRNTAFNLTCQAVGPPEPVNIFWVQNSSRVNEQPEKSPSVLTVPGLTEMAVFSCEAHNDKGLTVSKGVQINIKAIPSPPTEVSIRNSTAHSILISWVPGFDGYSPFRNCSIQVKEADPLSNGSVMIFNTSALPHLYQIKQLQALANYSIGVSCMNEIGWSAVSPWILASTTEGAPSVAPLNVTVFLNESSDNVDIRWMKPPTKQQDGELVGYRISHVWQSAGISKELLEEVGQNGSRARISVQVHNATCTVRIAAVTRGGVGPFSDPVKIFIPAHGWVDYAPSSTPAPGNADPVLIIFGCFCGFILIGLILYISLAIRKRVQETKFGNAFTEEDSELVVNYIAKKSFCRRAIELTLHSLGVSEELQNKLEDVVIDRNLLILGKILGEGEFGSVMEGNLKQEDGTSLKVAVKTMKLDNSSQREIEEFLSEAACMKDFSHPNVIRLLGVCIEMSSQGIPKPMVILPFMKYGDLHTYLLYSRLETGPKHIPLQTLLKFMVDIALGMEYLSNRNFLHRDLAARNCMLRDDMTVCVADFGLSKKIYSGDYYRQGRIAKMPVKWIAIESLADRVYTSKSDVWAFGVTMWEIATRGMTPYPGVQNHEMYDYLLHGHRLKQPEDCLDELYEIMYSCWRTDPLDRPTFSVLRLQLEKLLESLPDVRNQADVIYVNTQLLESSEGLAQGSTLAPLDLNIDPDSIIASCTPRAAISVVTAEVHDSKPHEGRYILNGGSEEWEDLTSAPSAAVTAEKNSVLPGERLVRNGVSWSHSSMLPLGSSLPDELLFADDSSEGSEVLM
Sequence of AXL (P30530 26-894): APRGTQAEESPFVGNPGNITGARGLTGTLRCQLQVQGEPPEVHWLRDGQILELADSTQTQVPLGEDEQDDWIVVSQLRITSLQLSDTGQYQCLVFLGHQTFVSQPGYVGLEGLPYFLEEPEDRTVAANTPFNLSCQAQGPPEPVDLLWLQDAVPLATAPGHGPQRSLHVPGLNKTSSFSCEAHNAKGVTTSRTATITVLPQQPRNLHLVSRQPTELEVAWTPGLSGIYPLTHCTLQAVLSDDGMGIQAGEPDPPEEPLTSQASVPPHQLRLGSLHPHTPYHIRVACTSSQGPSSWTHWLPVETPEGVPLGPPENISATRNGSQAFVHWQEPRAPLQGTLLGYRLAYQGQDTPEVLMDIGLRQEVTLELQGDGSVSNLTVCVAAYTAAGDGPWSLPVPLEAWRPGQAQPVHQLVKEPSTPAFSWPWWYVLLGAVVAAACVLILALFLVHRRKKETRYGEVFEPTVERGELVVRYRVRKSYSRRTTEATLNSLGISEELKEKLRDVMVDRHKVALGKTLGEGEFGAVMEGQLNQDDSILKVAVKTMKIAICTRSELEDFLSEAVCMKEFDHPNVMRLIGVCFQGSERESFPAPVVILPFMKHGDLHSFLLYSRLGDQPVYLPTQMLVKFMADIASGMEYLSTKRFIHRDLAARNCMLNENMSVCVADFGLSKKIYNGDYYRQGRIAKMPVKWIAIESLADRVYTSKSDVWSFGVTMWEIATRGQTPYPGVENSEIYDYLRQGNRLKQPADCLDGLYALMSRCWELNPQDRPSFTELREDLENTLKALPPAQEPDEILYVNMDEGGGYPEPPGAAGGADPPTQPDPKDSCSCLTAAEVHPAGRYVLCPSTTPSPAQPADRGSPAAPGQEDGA
Sequence of Human Axl (P30530 473-894 Q764R): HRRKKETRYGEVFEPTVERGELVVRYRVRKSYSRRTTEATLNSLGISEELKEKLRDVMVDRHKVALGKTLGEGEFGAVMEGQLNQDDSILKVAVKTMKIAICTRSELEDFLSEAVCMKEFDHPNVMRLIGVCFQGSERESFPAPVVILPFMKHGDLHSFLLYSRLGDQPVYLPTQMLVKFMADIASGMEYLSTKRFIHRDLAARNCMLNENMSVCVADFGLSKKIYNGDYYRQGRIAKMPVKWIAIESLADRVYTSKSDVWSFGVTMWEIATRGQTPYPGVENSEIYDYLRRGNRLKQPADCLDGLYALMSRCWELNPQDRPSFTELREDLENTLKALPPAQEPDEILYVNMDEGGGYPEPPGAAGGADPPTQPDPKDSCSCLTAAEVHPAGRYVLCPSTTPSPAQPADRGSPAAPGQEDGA

In the case of `COC(=O)c1cc2c(Oc3ccc(NC(=O)C4(C(=O)Nc5ccc(F)cc5)CC4)cn3)ccnc2cc1OC` [Compound 10, Methyl 4-[5-[[1-[(4-fluorophenyl)carbamoyl]cyclopropanecarbonyl]-amino]pyridin-2-yl]oxy-7-methoxyquinoline-6-carboxylate], the IC50 (usually the concentration that gives 50% inhibition) at Human Axl is not above 10 nM; at AXL it was 10 to 100 nM.

In the case of `COC(=O)c1cc2c(Oc3ncc(NC(=O)C4(C(=O)Nc5ccc(F)cc5)CC4)cc3Cl)ccnc2cc1OC` [Compound 11, Methyl 4-[3-chloro-5-[[1-[(4-fluorophenyl)carbamoyl]cyclopropanecarbonyl]-amino]pyridin-2-yl]oxy-7-methoxyquinoline-6-carboxylate], the IC50 against Human Axl was not above 10 nM; against AXL, 10 to 100 nM; at Mer, 10 to 100 nM.

In the case of `COc1cc2nccc(Oc3ccc(NC(=O)C4(C(=O)Nc5ccc(F)cc5)CC4)cn3)c2cc1C(N)=O` [Compound 16, 1-N′-[6-(6-Carbamoyl-7-methoxyquinolin-4-yl)oxypyridin-3-yl]-1-N-(4-fluorophenyl)-cyclopropane-1,1-dicarboxamide], the IC50 on Human Axl and on AXL was 10 to 100 nM each time.

Turning to `CNC(=O)c1cc2c(Oc3ccc(NC(=O)C4(C(=O)Nc5ccc(F)cc5)CC4)cn3)ccnc2cc1OC` [Compound 17, 1-N-(4-Fluorophenyl)-1-N′-[6-[7-methoxy-6-(methylcarbamoyl)quinolin-4-yl]oxypyridin-3-yl]cyclopropane-1,1-dicarboxamide], the IC50 against Human Axl and at AXL was 10 to 100 nM throughout.

For the molecule `COc1cc2nccc(Oc3ncc(NC(=O)C4(C(=O)Nc5ccc(F)cc5)CC4)cc3Cl)c2cc1C(N)=O` [Compound 18, 1-N′-[6-(6-Carbamoyl-7-methoxyquinolin-4-yl)oxy-5-chloropyridin-3-yl]-1-N-(4-fluorophenyl)cyclopropane-1,1-dicarboxamide], the IC50 was not above 10 nM at Human Axl, not above 10 nM on AXL and 10 to 100 nM on Mer.

`COc1cc2nccc(Oc3ccc(NC(=O)C4(C(=O)Nc5ccc(F)cc5)CC4)cn3)c2cc1-c1cn[nH]c1` [Compound 60, 1-N-(4-Fluorophenyl)-1-N′-[6-[7-methoxy-6-(1H-pyrazol-4-yl)quinolin-4-yl]oxypyridin-3-yl]cyclopropane-1,1-dicarboxamide]: the IC50 against Human Axl was not above 10 nM; at AXL, 10 to 100 nM; on Mer, 10 to 100 nM.

For `COc1cc2nccc(Oc3ncc(NC(=O)C4(C(=O)Nc5ccc(F)cc5)CC4)cc3Cl)c2nc1OC` [Compound 80, 1-N′-[5-Chloro-6-[(6,7-dimethoxy-1,5-naphthyridin-4-yl)oxy]pyridin-3-yl]-1-N-(4-fluorophenyl)cyclopropane-1,1-dicarboxamide], the IC50 at Human Axl was 10 to 100 nM; on AXL, 100 to 300 nM; at Mer, 100 to 300 nM.

`COc1cc2nccc(Oc3ccc(NC(=O)C4(C(=O)Nc5ccc(F)cc5)CC4)cn3)c2nc1OC` [Compound 81, 1-N′-[6-[(6,7-Dimethoxy-1,5-naphthyridin-4-yl)oxy]pyridin-3-yl]-1-N-(4-fluorophenyl)cyclopropane-1,1-dicarboxamide]: the IC50 at Human Axl lay within 10 to 100 nM; at AXL it was 100 to 300 nM.

In the case of `COc1cc2nccc(Oc3ncc(NC(=O)C4(C(=O)Nc5ccc(F)cc5)CC4)cc3F)c2nc1OC` [Compound 82, 1-N′-[6-[(6,7-Dimethoxy-1,5-naphthyridin-4-yl)oxy]-5-fluoropyridin-3-yl]-1-N-(4-fluorophenyl)cyclopropane-1,1-dicarboxamide], the IC50 was not above 10 nM on Human Axl, 10 to 100 nM against AXL and 10 to 100 nM on Mer.

These data come from patent US11673897B2, “Compounds for the treatment of kinase-dependent disorders” (Exelixis, Inc., priority 2018, dated 2023).
